Assay results reported in patent US20250136606A1, “MODULATORS OF TRPML, THEIR COMPOSITIONS AND METHODS OF USE” (Caraway Therapeutics, Inc., priority 2021, published 2025).

Experiments:
Format in all cases: cell-based
Conditions in all cases: fluorescent calcium assay
TRPML2 = target: T1, TRPML2 (Homo sapiens, UniProt Q8IZK6); experiment: Fluorescent TRPML2 assay (performed as for TRPML1, substituting the TRPML2 subtype)
T1 construct: expressed in transfected cells
T1 sequence (Q8IZK6 1-566): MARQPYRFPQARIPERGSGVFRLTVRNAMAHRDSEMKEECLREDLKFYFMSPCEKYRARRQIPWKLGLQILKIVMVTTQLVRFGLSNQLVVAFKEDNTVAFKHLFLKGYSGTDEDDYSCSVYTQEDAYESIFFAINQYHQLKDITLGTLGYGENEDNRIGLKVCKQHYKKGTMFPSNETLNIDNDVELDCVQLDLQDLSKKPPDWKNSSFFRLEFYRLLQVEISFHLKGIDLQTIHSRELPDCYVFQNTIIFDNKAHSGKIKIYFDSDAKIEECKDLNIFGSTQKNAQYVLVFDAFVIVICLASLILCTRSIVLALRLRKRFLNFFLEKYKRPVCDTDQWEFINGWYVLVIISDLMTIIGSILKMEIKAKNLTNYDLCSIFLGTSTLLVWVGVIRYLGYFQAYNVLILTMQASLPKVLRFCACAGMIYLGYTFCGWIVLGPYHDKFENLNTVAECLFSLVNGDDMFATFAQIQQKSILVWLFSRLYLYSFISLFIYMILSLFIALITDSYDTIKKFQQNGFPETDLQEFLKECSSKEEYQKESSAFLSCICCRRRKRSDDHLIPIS
Outline: (§1)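 HEK-293 Trex cells with doxycycline-induced (0.5 ug/mL) surface-directed human TRPML subtype, loaded with 1 μM Fluo4-AM, resuspended in Ringer's with 10 mM calcium. Compounds at 20 μM to 6 nM final in half-log steps, triplicate; fluorescence ex 480/em 540; EC50 by non-linear regression versus plate controls.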

TRPML1 = TRPML1 (Homo sapiens, UniProt Q9GZU1); experiment: Fluorescent TRPML1 assay (Fluo4-AM calcium fluorescence in doxycycline-induced HEK-293 Trex cells)
Sequence of TRPML1 (Q9GZU1 whole entry L15A/L16A/L577A/L578A, form open): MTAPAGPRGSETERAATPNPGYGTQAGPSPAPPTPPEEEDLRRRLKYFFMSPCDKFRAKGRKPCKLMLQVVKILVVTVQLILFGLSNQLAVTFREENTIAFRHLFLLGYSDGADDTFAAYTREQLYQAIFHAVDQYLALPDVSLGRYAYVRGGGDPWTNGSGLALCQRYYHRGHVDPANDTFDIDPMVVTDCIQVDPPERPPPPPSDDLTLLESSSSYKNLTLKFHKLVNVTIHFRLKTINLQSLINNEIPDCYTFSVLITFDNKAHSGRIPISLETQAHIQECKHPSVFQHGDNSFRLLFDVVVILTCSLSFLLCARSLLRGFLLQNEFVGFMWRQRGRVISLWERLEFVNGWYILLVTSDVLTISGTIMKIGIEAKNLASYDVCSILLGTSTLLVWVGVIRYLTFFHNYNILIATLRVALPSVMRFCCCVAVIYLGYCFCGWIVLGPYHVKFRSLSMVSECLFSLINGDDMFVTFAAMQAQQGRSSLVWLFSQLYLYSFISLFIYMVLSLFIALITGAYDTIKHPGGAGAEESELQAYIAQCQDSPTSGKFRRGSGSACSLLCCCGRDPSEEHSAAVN
Outline: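 First, expression of surface-targeted mutant human TRPML1 is induced in HEK-293 Trex cells with 0.5 ug/mL doxycycline the day before. Next, cells take up 1 micromolar Fluo4-AM in Ringer's with 0.1% Pluronic. Finally, they are added to compounds (6 nanomolar–20 micromolar final) in 10 mM calcium Ringer's and fluorescence is read.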

TRPML3 = target: T2, TRPML3 (Homo sapiens, UniProt Q8TDD5); experiment: Fluorescent TRPML3 assay (performed as for TRPML1, substituting the TRPML3 subtype)
T2 construct: expressed in transfected cells
T2 sequence (Q8TDD5 1-553): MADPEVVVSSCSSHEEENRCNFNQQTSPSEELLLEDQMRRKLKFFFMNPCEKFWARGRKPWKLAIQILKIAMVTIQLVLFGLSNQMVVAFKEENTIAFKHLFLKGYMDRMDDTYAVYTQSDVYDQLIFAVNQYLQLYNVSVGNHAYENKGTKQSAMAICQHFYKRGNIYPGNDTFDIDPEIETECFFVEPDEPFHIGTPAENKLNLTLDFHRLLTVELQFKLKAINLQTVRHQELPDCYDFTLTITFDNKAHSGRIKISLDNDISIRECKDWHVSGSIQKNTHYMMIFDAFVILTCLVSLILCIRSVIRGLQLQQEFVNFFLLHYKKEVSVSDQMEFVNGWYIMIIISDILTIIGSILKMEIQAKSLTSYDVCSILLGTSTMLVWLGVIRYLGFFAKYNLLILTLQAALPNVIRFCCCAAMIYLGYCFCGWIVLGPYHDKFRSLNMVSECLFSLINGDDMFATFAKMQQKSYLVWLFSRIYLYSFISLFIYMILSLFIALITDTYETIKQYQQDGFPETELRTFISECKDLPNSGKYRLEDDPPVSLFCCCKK
Outline: as §1

C[C@@H]1CN(c2ncnc3c2c(-c2cnccn2)cn3-c2cc(F)cc(F)c2)CCN1C(=O)OC(C)(C)C [Compound 233, tert-butyl (R)-4-(7-(3,5-difluorophenyl)-5-(pyrazin-2-yl)-7H-pyrrolo[2,3-d]pyrimidin-4-yl)-2-methylpiperazine-1-carboxylate]
EC50 (TRPML2): 500 to 2000 nM
EC50 (TRPML1): 500 to 2000 nM
EC50 (TRPML3): 100 to 500 nM

CC(C)(C)OC(=O)N1CCN(c2ncnc3c2c(C2CC2)cn3-c2cc(F)c(F)c(F)c2)CC1 [Compound 234, tert-butyl 4-(5-cyclopropyl-7-(3,4,5-trifluorophenyl)-7H-pyrrolo[2,3-d]pyrimidin-4-yl)piperazine-1-carboxylate]
EC50 (TRPML2): 500 to 2000 nM
EC50 (TRPML1): 100 to 500 nM
EC50 (TRPML3): 100 to 500 nM

C[C@H]1CN(C(=O)OC(C)(C)C)CCN1c1ncnc2c1c(-c1ccccn1)cn2-c1cc(F)cc(F)c1 [Compound 235, tert-butyl-(S)-4-(7-(3,5-difluorophenyl)-5-(pyridin-2-yl)-7H-pyrrolo[2,3-d]pyrimidin-4-yl)-3-methylpiperazine-1-carboxylate]
EC50 (TRPML2): 100 to 500 nM
EC50 (TRPML1): 100 to 500 nM
EC50 (TRPML3): 100 to 500 nM

C[C@@H]1CN(c2ncnc3c2c(C2CC2)cn3-c2cc(F)cc(Cl)c2)[C@@H](C)CN1C(=O)OC(C)(C)C [Compound 236, tert-butyl (2R,5S)-4-(7-(3-chloro-5-fluorophenyl)-5-cyclopropyl-7H-pyrrolo[2,3-d]pyrimidin-4-yl)-2,5-dimethylpiperazine-1-carboxylate]
EC50 (TRPML2): 100 to 500 nM
EC50 (TRPML1): < 100 nM
EC50 (TRPML3): < 100 nM

C[C@H]1CN(C(=O)OC(C)(C)C)CCN1c1ncnc2c1c(-c1cnccn1)cn2-c1cc(F)cc(F)c1 [Compound 237, tert-butyl-(S)-4-(7-(3,5-difluorophenyl)-5-(pyrazin-2-yl)-7H-pyrrolo[2,3-d]pyrimidin-4-yl)-3-methylpiperazine-1-carboxylate]
EC50 (TRPML2): 500 to 2000 nM
EC50 (TRPML1): 500 to 2000 nM
EC50 (TRPML3): 100 to 500 nM

C[C@@H]1CN(c2ncnc3c2c(-c2ccncc2)cn3-c2cc(F)cc(Cl)c2)CCN1C(=O)OC(C)(C)C [Compound 238, tert-butyl (R)-4-(7-(3-chloro-5-fluorophenyl)-5-(pyridin-4-yl)-7H-pyrrolo[2,3-d]pyrimidin-4-yl)-2-methylpiperazine-1-carboxylate]
EC50 (TRPML2): 500 to 2000 nM
EC50 (TRPML1): < 100 nM
EC50 (TRPML3): 100 to 500 nM

C[C@@H]1CN(c2ncnc3c2c(C2CC2)nn3-c2cc(F)cc(F)c2)CCN1C(=O)OC(C)(C)C [Compound 239, tert-butyl (R)-4-(3-cyclopropyl-1-(3,5-difluorophenyl)-1H-pyrazolo[3,4-d]pyrimidin-4-yl)-2-methylpiperazine-1-carboxylate]
EC50 (TRPML2): 500 to 2000 nM
EC50 (TRPML1): < 100 nM
EC50 (TRPML3): < 100 nM

C[C@H]1CN(c2ncnc3c2c(C2CC2)nn3-c2cc(F)cc(F)c2)CCN1C(=O)OC(C)(C)C [Compound 240, tert-Butyl (S)-4-(3-cyclopropyl-1-(3,5-difluorophenyl)-1H-pyrazolo[3,4-d]pyrimidin-4-yl)-2-methylpiperazine-1-carboxylate]
EC50 (TRPML2): 500 to 2000 nM
EC50 (TRPML1): 100 to 500 nM
EC50 (TRPML3): 100 to 500 nM

C[C@H]1CN(C(=O)OC(C)(C)C)CCN1c1ncnc2c1c(-c1ccncc1)cn2-c1cc(F)cc(F)c1 [Compound 241, tert-butyl-(S)-4-(7-(3,5-difluorophenyl)-5-(pyridin-4-yl)-7H-pyrrolo[2,3-d]pyrimidin-4-yl)-3-methylpiperazine-1-carboxylate]
EC50 (TRPML2): 500 to 2000 nM
EC50 (TRPML1): 100 to 500 nM
EC50 (TRPML3): 100 to 500 nM

Cc1nccnc1-c1cn(-c2cc(F)cc(F)c2)c2ncnc(N3CCN(C(=O)OC(C)(C)C)[C@H](C)C3)c12 [Compound 242, tert-butyl (R)-4-(7-(3,5-difluorophenyl)-5-(3-methylpyrazin-2-yl)-7H-pyrrolo[2,3-d]pyrimidin-4-yl)-2-methylpiperazine-1-carboxylate]
EC50 (TRPML2): 100 to 500 nM
EC50 (TRPML1): 100 to 500 nM
EC50 (TRPML3): 100 to 500 nM

Cc1nccnc1-c1cn(-c2cc(F)cc(F)c2)c2ncnc(N3CCN(C(=O)OC(C)(C)C(F)(F)F)[C@H](C)C3)c12 [Compound 243, 1,1,1-trifluoro-2-methylpropan-2-yl (R)-4-(7-(3,5-difluorophenyl)-5-(3-methylpyrazin-2-yl)-7H-pyrrolo[2,3-d]pyrimidin-4-yl)-2-methylpiperazine-1-carboxylate]
EC50 (TRPML2): 500 to 2000 nM
EC50 (TRPML1): 100 to 500 nM
EC50 (TRPML3): 100 to 500 nM

C[C@@H]1CN(c2ncnc3c2c(N2CCCC2)cn3-c2cc(F)cc(F)c2)CCN1C(=O)OC(C)(C)C [Compound 245, tert-butyl (R)-4-(7-(3,5-difluorophenyl)-5-(pyrrolidin-1-yl)-7H-pyrrolo[2,3-d]pyrimidin-4-yl)-2-methylpiperazine-1-carboxylate]
EC50 (TRPML2): 500 to 2000 nM
EC50 (TRPML1): 100 to 500 nM
EC50 (TRPML3): 100 to 500 nM

Cc1nccnc1-c1cn(-c2cc(F)cc(F)c2)c2ncnc(N3CCN(C(=O)OC(C)(C)C)C[C@@H]3C)c12 [Compound 246, tert-butyl (S)-4-(7-(3,5-difluorophenyl)-5-(3-methylpyrazin-2-yl)-7H-pyrrolo[2,3-d]pyrimidin-4-yl)-3-methylpiperazine-1-carboxylate]
EC50 (TRPML2): 500 to 2000 nM
EC50 (TRPML1): 500 to 2000 nM
EC50 (TRPML3): 100 to 500 nM

Cc1nccnc1-c1cn(-c2cc(F)cc(F)c2)c2ncnc(N3CCN(C(=O)OC(C)(C)C(F)(F)F)C[C@@H]3C)c12 [Compound 247, 1,1,1-trifluoro-2-methylpropan-2-yl (S)-4-(7-(3,5-difluorophenyl)-5-(3-methylpyrazin-2-yl)-7H-pyrrolo[2,3-d]pyrimidin-4-yl)-3-methylpiperazine-1-carboxylate]
EC50 (TRPML2): 500 to 2000 nM
EC50 (TRPML1): 500 to 2000 nM
EC50 (TRPML3): 100 to 500 nM

Cc1nccnc1-c1cn(-c2cc(F)cc(F)c2)c2ncnc(N3CCN(C(=O)OC(C)(C)CF)C[C@@H]3C)c12 [Compound 248, 1-fluoro-2-methylpropan-2-yl (S)-4-(7-(3,5-difluorophenyl)-5-(3-methylpyrazin-2-yl)-7H-pyrrolo[2,3-d]pyrimidin-4-yl)-3-methylpiperazine-1-carboxylate]
EC50 (TRPML2): > 2000 nM
EC50 (TRPML1): 500 to 2000 nM
EC50 (TRPML3): 500 to 2000 nM

Cc1nccnc1-c1cn(-c2cc(F)cc(F)c2)c2ncnc(N3CCN(C(=O)OC(C)C)C[C@@H]3C)c12 [Compound 249, Isopropyl (S)-4-(7-(3,5-difluorophenyl)-5-(3-methylpyrazin-2-yl)-7H-pyrrolo[2,3-d]pyrimidin-4-yl)-3-methylpiperazine-1-carboxylate]
EC50 (TRPML2): > 2000 nM
EC50 (TRPML1): > 2000 nM
EC50 (TRPML3): 500 to 2000 nM

Cc1nccnc1-c1cn(-c2cc(F)cc(F)c2)c2ncnc(N3CCN(C(=O)OC(C)(C)CF)[C@H](C)C3)c12 [Compound 250, 1-fluoro-2-methylpropan-2-yl (R)-4-(7-(3,5-difluorophenyl)-5-(3-methylpyrazin-2-yl)-7H-pyrrolo[2,3-d]pyrimidin-4-yl)-2-methylpiperazine-1-carboxylate]
EC50 (TRPML2): > 2000 nM
EC50 (TRPML1): 500 to 2000 nM
EC50 (TRPML3): 100 to 500 nM

Cc1nccnc1-c1cn(-c2cc(F)cc(F)c2)c2ncnc(N3CCN(C(=O)OC(C)C)[C@H](C)C3)c12 [Compound 251, isopropyl (R)-4-(7-(3,5-difluorophenyl)-5-(3-methylpyrazin-2-yl)-7H-pyrrolo[2,3-d]pyrimidin-4-yl)-2-methylpiperazine-1-carboxylate]
EC50 (TRPML2): > 2000 nM
EC50 (TRPML1): > 2000 nM
EC50 (TRPML3): 500 to 2000 nM

CC(C)OC(=O)N1C[C@H](C)N(c2ncnc3c2c(-c2ccccc2F)cn3-c2cnn(C)c2)C[C@H]1C [Compound 252, isopropyl (2R,5S)-4-(5-(2-fluorophenyl)-7-(1-methyl-1H-pyrazol-4-yl)-7H-pyrrolo[2,3-d]pyrimidin-4-yl)-2,5-dimethylpiperazine-1-carboxylate]
EC50 (TRPML2): > 2000 nM
EC50 (TRPML1): 100 to 500 nM
EC50 (TRPML3): 100 to 500 nM
